Columns and labels:
Type in all cases: in vivo
[1] = system: adult engorged female ticks (Rhipicephalus microplus); test: Rhipicephalus (Boophilus) microplus injection test; details: 168 h, egg deposition after 7 days, read-out: efficacy (infertile eggs); for pest or weed control at 0.004 mg: 4 μg/animal; for pest or weed control at 0.02 mg: 20 μg/animal
Experimental: (§1) Solvent: dimethyl sulfoxide
To produce a suitable preparation of active compound, 10 mg of active compound are dissolved in 0.5 mL solvent, and the concentrate is diluted with solvent to the desired concentration.
Five adult engorged female ticks (Rhipicephalus microplus) are injected with 1 μL compound solution into the abdomen. The ticks are transferred into replica plates and incubated in a climate chamber.
After 7 days egg deposition of fertile eggs is monitored. Eggs where fertility is not visible are stored in a climate chamber till hatching after about 42 days. An efficacy of 100% means all eggs are infertile; 0% means all eggs are fertile.

[2] = system: adult unfed cat fleas (Ctenocephalides felis); test: Ctenocephalides felis oral test; details: 48 h, 100 ppm in cattle blood, after 2 days
Experimental: as §1
To produce a suitable preparation of active compound, 10 mg of active compound are dissolved in 0.5 mL solvent, and the concentrate is diluted with cattle blood to the desired concentration.
Approximately 20 adult unfed cat fleas (Ctenocephalides felis) are placed in flea chambers. The blood chamber, sealed with parafilm on the bottom, are filled with cattle blood supplied with compound solution and placed on the gauze covered top of the flea chamber, so that the fleas are able to suck the blood. The blood chamber is heated to 37° C. whereas the flea chamber is kept at room temperature.
After 2 days mortality in % is determined. 100% means all the fleas have been killed; 0% means none of the fleas have been killed.

[3] = system: cattle tick larvae (Rhipicephalus microplus), strain Parkhurst, resistant against synthetic pyrethroids; test: Rhipicephalus (Boophilus) microplus in-vitro contact test, larval cattle tick; details: 5 μg/cm^2 (=500 g/ha), after 48 hours, read-out: efficacy (larvae dead or moribund)
Experimental: 9 mg compound is solved in 1 mL acetone and diluted with acetone to the desired concentration. 250 μL of the test solution is filled in 25 mL glass test tubes and homogeneously distributed on the inner walls by rotation and tilting on a shaking device (2 h at 30 rpm). With a compound concentration of 900 ppm, an inner surface of 44.7 cm^2 and a homogeneous distribution, a dose of 5 μg/cm^2 is achieved.
After the solvent has evaporated, each test tube is filled with 20-50 cattle tick larvae (Rhipicephalus microplus), closed with a perforated lid and incubated in a horizontal position at 85% relative humidity and 27° C. in an incubator. After 48 hours efficacy is determined. The larvae are patted on the ground of the tubes and negative geotactic behaviour is recorded.
An efficacy of 100% means all larvae are dead or moribund; 0% means no larvae are dead or moribund.

[4] = system: larvae of the banded cucumber beetle (Diabrotica balteata); test: Diabrotica balteata spray test; details: 168 h, 100 g/ha (=32 μg/well), after 7 days, wheat seeds, read-out: efficacy (seedlings grown up)
Experimental: Solvent: 78.0 parts by weight of acetone • • 1.5 parts by weight of dimethylformamide
(§2) Emulsifier: alkylarylpolyglycol ether
(§3) To produce a suitable preparation of active compound, 1 part by weight of active compound is mixed with the stated amount of solvent, and the concentrate is diluted with water, containing an emulsifier concentration of 1000 ppm, to the desired concentration. Further test concentrations are prepared by dilution with emulsifier containing water.
Soaked wheat seeds (Triticum aestivum) are placed in a multiple well plate filled with agar and some water and are incubated for 1 day to germinate (5 seeds per well). The germinated wheat seeds are sprayed with a test solution containing the desired concentration of the active ingredient. Afterwards each unit is infected with 10-20 larvae of the banded cucumber beetle (Diabrotica balteata).
After 7 days efficacy in % is determined. 100% means all the seedlings have grown up like in the untreated, uninfected control; 0% means none of the seedlings have grown.

[5] = system: fall armyworm larvae (Spodoptera frugiperda); test: Spodoptera frugiperda spray test (maize leaf sections); details: 168 h
Experimental: Solvent: 78.0 parts by weight acetone • 1.5 parts by weight dimethylformamide
as §2
as §3, with “solvents” for “solvent,”, “and” for “and the concentrate”
Maize (Zea mays) leaf sections are sprayed with a preparation of the active ingredient of the desired concentration. Once dry, the leaf sections are infested with fall armyworm larvae (Spodoptera frugiperda).
After 7 days mortality in % is determined. 100% means all caterpillars have been killed and 0% means none of the caterpillars have been killed.

Row | SMILES | pest or weed control at 0.004 mg [1] | mortality at 100 ppm [2] | pest or weed control at 0.02 mg [1] | pest or weed control at 5 µg/cm2 [3] | pest or weed control at 32 µg/disc, 100 g/ha [4] | mortality at 100 g/ha [5]
1 | CC(NC(=O)c1cc(Cl)cc(S(C)(=O)=O)c1)c1nc(N)nn1-c1ncccn1 (stereo not drawn) [I-008] | 100% | 100% |  |  |  | 
2 | CC(NC(=O)c1cc(Cl)cc(Cl)c1)c1nc(CS(C)(=O)=O)nn1-c1ccc(Cl)cn1 (stereo not drawn) [I-028] | 100% | 100% | 100% |  |  | 
3 | CC(NC(=O)c1cncc(C(F)(F)F)c1)c1nc(CS(C)(=O)=O)nn1-c1ccc(Cl)cn1 (stereo not drawn) [I-030] | 100% | 100% | 100% |  |  | 
4 | CC(NC(=O)c1cc(Cl)nc(C(F)(F)F)c1)c1nc(-c2cnccn2)nn1-c1ccc(Cl)cn1 (stereo not drawn) [I-037] | 100% | 90% | 100% |  |  | 
5 | CC(NC(=O)c1cncc(C(F)(F)F)c1)c1nc(-c2cnccn2)nn1-c1ccc(Cl)cn1 (stereo not drawn) [I-038] | 100% | 100% | 100% |  |  | 
6 | CC(NC(=O)c1cc(Cl)cc(S(C)(=O)=O)c1)c1nc(-c2cnccn2)nn1-c1ccc(Cl)cn1 (stereo not drawn) [I-039] | 100% | 100% | 80% |  |  | 
7 | CC(NC(=O)c1cncc(C(F)(F)F)c1)c1nc(-c2ccc(Cl)nc2)nn1-c1ncccn1 (stereo not drawn) [I-042] |  | 90% | 100% |  |  | 
8 | CC(NC(=O)c1cc(Cl)nc(C(F)(F)F)c1)c1nc(-c2cnccn2)nn1-c1ncccn1 (stereo not drawn) [I-044] | 100% | 100% | 100% |  |  | 
9 | CC(NC(=O)c1cc(Cl)nc(Cl)c1)c1nc(-c2cnccn2)nn1-c1ncccn1 (stereo not drawn) [I-049] | 80% | 100% | 100% |  |  | 
10 | CC(NC(=O)c1cncc(C(F)(F)F)c1)c1nc(-c2cnccn2)nn1-c1ncccn1 (stereo not drawn) [I-050] | 100% | 100% | 100% |  |  | 
11 | CC(NC(=O)c1cc(Cl)nc(C(F)(F)F)c1)c1nc(-c2ncccn2)nn1-c1ncccn1 (stereo not drawn) [I-056] | 80% | 100% | 100% |  |  | 
12 | CC(NC(=O)c1cc(Cl)cc(S(C)(=O)=O)c1)c1nc(SC(F)(C(F)(F)F)C(F)(F)F)nn1-c1ccc(Cl)cn1 (stereo not drawn) [I-069] | 100% |  | 100% | 100% |  | 
13 | CC(NC(=O)c1cc(Cl)cc(C(F)(F)F)c1)c1nc(SC(F)(C(F)(F)F)C(F)(F)F)nn1-c1ccc(Cl)cn1 (stereo not drawn) [I-070] | 100% |  | 100% | 100% |  | 
14 | CC(NC(=O)c1cc(Cl)cc(C(F)(F)F)c1)c1nc(Cc2ccccc2)nn1-c1ncccn1 (stereo not drawn) [I-083] |  | 90% |  |  | 100% | 
15 | CC(NC(=O)c1cc(C(F)(F)F)cc(C(F)(F)F)c1)c1nc(NC(=O)OC(C)(C)C)nn1-c1ccc(C(=O)N2CCOCC2)cn1 (stereo not drawn) [I-113] |  |  |  | 90% | 100% | 
16 | CC(NC(=O)c1cc(OC(F)(F)F)cc(C2CC2)c1)c1nc(N)nn1-c1ccc(C#N)cn1 (stereo not drawn) [I-122] |  |  |  | 100% | 100% | 
17 | CC(=O)Nc1nc(C(C)NC(=O)c2cc(OC(F)(F)F)cc(C3CC3)c2)n(-c2ccc(C#N)cn2)n1 (stereo not drawn) [I-124] |  |  |  | 100% | 100% | 100%
18 | CC(NC(=O)c1cc(C(F)(F)F)cc(C(F)(F)F)c1)c1nc(N2CCOCC2)nn1-c1ccc(C#N)cn1 (stereo not drawn) [I-158] |  |  |  | 100% | 100% | 100%
19 | CC(NC(=O)c1cc(OC(F)(F)F)cc(C2CC2)c1)c1nc(N2CCOCC2)nn1-c1ccc(C#N)cn1 (stereo not drawn) [I-161] |  |  |  | 100% | 100% | 

From patent publication US20230028441A1, “NOVEL HETEROARYL-TRIAZOLE COMPOUNDS AS PESTICIDES” (Bayer Aktiengesellschaft, priority 2019, published 2023)
